Assay results taken from ChEMBL document CHEMBL3137667, “[Drug-induced liver injury; fourteenth updated edition of the bibliographic database of liver injuries and related drugs]” (Gastroenterol Clin Biol, 2004).

Assays:
[1] = human
[2] = Highest frequency of acute liver toxicity observed during clinical trials, expressed as a percentage. [column '% AIGUE' in source]; settings: human
[3] = human; remark: listed apart in the source
[4] = human; remark: listed apart in the source
[5] = human; remark: listed apart in the source
[6] = human; remark: listed apart in the source
[7] = human; remark: listed apart in the source
[8] = human; remark: listed apart in the source
[9] = human, serum
[10] = human; remark: listed apart in the source
[11] = human; remark: listed apart in the source
[12] = Comments (NB not yet translated). [column 'COMMENTAIRES' in source]; settings: human
[13] = human, serum, 4383 h
[14] = Highest frequency of moderate liver toxicity observed during clinical trials, expressed as a percentage. [column '% BIOL' in source]; settings: human
[15] = human, serum; remark: listed apart in the source
[16] = Times to onset, minimal and maximal, observed in the indexed observations. [column 'DELAI' in source]; settings: human
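Wherever Hepatotoxicity (association with vascular disease) is given: count of indexed literature references reporting vascular liver injury in humans, e.g. peliosis hepatitis, hepatic veno-occlusive disease or Budd-Chiari syndrome.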
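Wherever Hepatotoxicity (benign tumour) is given: value is a count of indexed literature references citing a benign tumour confirmed by histopathology.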
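Wherever Hepatotoxicity (choleostasis) is given: human cholestatic liver injury, shown by histopathology or by peak ALT or AST elevation over alkaline phosphatase ratio below 2, value counts indexed literature reports.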
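Wherever Hepatotoxicity (chronic liver disease) is given: chronic liver injury confirmed by histopathology or persistently raised serum aminotransferase activity beyond 6 months, value given as the count of indexed literature references.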
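Wherever Hepatotoxicity (cirrhosis) is given: value is a count of indexed literature references reporting cirrhosis confirmed by histopathology.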
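Wherever Hepatotoxicity (cytolytic) is given: human cytolytic liver injury, shown by histopathology or by a ratio above 5 of peak ALT or AST elevation to alkaline phosphatase elevation, value counts indexed references.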
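Wherever Hepatotoxicity (granulomatous hepatitis) is given: value is a count of indexed literature references reporting granulomatous liver disease confirmed by histopathology.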
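Wherever Hepatotoxicity (malignant tumour) is given: malignant tumour confirmed by histopathology, value gives the count of indexed literature references reporting it.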
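Wherever Hepatotoxicity (severe hepatitis) is given: human clinical data: severe hepatitis, meaning potentially life-threatening liver failure or clinically observed cases, the value counts how many indexed literature references report it.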
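Wherever Hepatotoxicity (steatosis) is given: steatosis confirmed by histopathology, value is the count of indexed references.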

SMILES | Hepatotoxicity (association with vascular disease) [1] | Hepatotoxicity (acute) [2] [%] | Hepatotoxicity (cirrhosis) [3] | Hepatotoxicity (cytolytic) [4] | Hepatotoxicity (granulomatous hepatitis) [5] | Hepatotoxicity (steatosis) [6] | Hepatotoxicity (benign tumour) [7] | Hepatotoxicity (severe hepatitis) [8] | Hepatotoxicity (acute) [9] | Hepatotoxicity (malignant tumour) [10] | Hepatotoxicity (choleostasis) [11] | Hepatotoxicity (comment) [12] | Hepatotoxicity (chronic liver disease) [13] | Hepatotoxicity (moderate) [14] [%] | Hepatotoxicity (moderate) [15] | Hepatotoxicity (time to onset) [16] | Hepatotoxicity (acute) ([2]; Liver) [%] | Hepatotoxicity (severe hepatitis) ([8]; Liver) | Hepatotoxicity (moderate) ([14]; Liver) [%]
CC(C)(C)NCC(O)c1cc(O)cc(O)c1 (stereo not drawn) [TERBUTALINE] | 0 | 0 | 0 | 2 | 0 | 0 | 0 | 0 | 2 | 0 | 0 | VOIR_BAMBUTEROL | 0 | 0 | 0 | 4 weeks - 8 weeks | – | – | –
CC/C(=C(/CC)c1ccc(OP(=O)(O)O)cc1)c1ccc(OP(=O)(O)O)cc1 [DIETHYLSTILBESTROL DIPHOSPHATE] | 0 | 0 | 1 | 0 | 0 | 1 | 0 | 0 | 0 | 0 | 0 | NASH | 1 | 6.3 | 1 | 3 months - 9 years | – | – | –
CC(=O)c1ccc2c(c1)N(CC(C)N(C)C)c1ccccc1S2 (stereo not drawn) [ACEPROMETAZINE] | 0 | 0 | 0 | 0 | 0 | 0 | 0 | 0 | 1 | 0 | 1 | CHOLESTASE_PROLONGEE | 0 | 0 | 0 | 3 months | – | – | –
CCc1cccc2c3c([nH]c12)C(CC)(CC(=O)O)OCC3 (stereo not drawn) [ETODOLAC] | 0 | 0 | 0 | 2 | 0 | 1 | 0 | 1 | 3 | 0 | 2 | AC_ANTI-N/-ML | 0 | 4 | 4 | 4 days - 16 weeks | – | – | –
CN1CCN(CCCN2c3ccccc3Sc3ccc(C(F)(F)F)cc32)CC1 [TRIFLUOPERAZINE] | 0 | 0 | 1 | 0 | 0 | 0 | 0 | 0 | 5 | 0 | 4 | #CBP | 0 | 0 | 2 | 2 weeks - 8 years | – | – | –
CCN1CCN(C(=O)N[C@@H](C(=O)N[C@@H]2C(=O)N3C(C(=O)O)=C(CSc4nnnn4C)CS[C@H]23)c2ccc(O)cc2)C(=O)C1=O [CEFOPERAZONE] | 0 | – | 0 | 0 | 0 | 0 | 0 | – | 0 | 0 | 0 | CHOLANGITE | 0 | – | 15 | 23 days | 0 | 1 | 20
CC(CN(C)C)CN1c2ccccc2Sc2ccc(C#N)cc21 (stereo not drawn) [CYAMEMAZINE] | 0 | 0 | 0 | 1 | 1 | 0 | 0 | 1 | 4 | 0 | 3 | CHOLANGITE #CIRROSE_BILIAIRE RC/DESIPRAMINE/TRIMIPRAMINE | 0 | 0 | 0 | 2 days - 7 weeks | – | – | –
C[C@]1(O)CC[C@H]2[C@@H]3CCC4=CC(=O)CC[C@]4(C)[C@@]3(F)[C@@H](O)C[C@@]21C [FLUOXYMESTERONE] | 6 | 0 | 0 | 0 | 0 | 0 | 1 | 0 | 2 | 3 | 2 | ANGIOSARCOME PELIOSE | 0 | 7.1 | 2 | 6 months - 13 years | – | – | –
C[C@@H]1C[C@H]2[C@@H]3CCC4=CC(=O)C=C[C@]4(C)[C@@]3(F)[C@@H](O)C[C@]2(C)[C@@]1(O)C(=O)CO [DEXAMETHASONE] | 0 | 0 | 0 | 0 | 0 | 0 | 0 | 0 | 0 | 0 | 0 | HEPATOMEGALIE | 0 | 24 | 2 | 8 days - 18 days | – | – | –
Cc1ccc(C(=O)Nc2ccc(S(=O)(=O)O)c3cc(S(=O)(=O)O)cc(S(=O)(=O)O)c23)cc1NC(=O)c1cccc(NC(=O)Nc2cccc(C(=O)Nc3cc(C(=O)Nc4ccc(S(=O)(=O)O)c5cc(S(=O)(=O)O)cc(S(=O)(=O)O)c45)ccc3C)c2)c1 [SURAMIN] | 0 | 6.3 | 0 | 1 | 0 | 0 | 0 | 1 | 3 | 0 | 0 | REACTIVATION_HVB | 0 | 63 | 11 | 1 week - 8 months | – | – | –
CC1COc2c(N3CCN(C)CC3)c(F)cc3c(=O)c(C(=O)O)cn1c23 (stereo not drawn) [OFLOXACIN] | 0 | 18.2 | 0 | 6 | 1 | 0 | 0 | 2 | 11 | 0 | 5 | I/PYRAZINAMIDE | 0 | 42.2 | 61 | 4 days - 26 weeks | – | – | –
O=c1cc(Cc2ccccc2)[nH]c(=S)[nH]1 [BENZYLTHIOURACIL] | 0 | 0 | 0 | 0 | 0 | 0 | 0 | 0 | 1 | 0 | 1 | RC/CARBIMAZOLE | 0 | 0 | 1 | 1 month - 2 months | – | – | –
C1CCC(C(CC2CCCCN2)C2CCCCC2)CC1 (stereo not drawn) [PERHEXILINE] | 0 | 0 | 22 | 9 | 1 | 10 | 0 | 5 | 11 | 0 | 2 | I/AMIODARONE/BEZAFIBRATE/PAROXETINE INCLUSIONLAMELLAIRE | 1 | 30 | 18 | 3 weeks - 12 years | – | – | –
